Measurements: patent US20250197372A1 (priority 2020, published 2025)

How the values were obtained:
[1] = biological target: T1, recombinant human GBA (beta-glucocerebrosidase) (Homo sapiens, UniProt P04062); assay: Beta-glucocerebrosidase (GBA, glucosylceramidase) assay (4-methylumbelliferyl-beta-D-pyranoside substrate, fluorescence); type: biochemical
T1 sequence (P04062 40-536): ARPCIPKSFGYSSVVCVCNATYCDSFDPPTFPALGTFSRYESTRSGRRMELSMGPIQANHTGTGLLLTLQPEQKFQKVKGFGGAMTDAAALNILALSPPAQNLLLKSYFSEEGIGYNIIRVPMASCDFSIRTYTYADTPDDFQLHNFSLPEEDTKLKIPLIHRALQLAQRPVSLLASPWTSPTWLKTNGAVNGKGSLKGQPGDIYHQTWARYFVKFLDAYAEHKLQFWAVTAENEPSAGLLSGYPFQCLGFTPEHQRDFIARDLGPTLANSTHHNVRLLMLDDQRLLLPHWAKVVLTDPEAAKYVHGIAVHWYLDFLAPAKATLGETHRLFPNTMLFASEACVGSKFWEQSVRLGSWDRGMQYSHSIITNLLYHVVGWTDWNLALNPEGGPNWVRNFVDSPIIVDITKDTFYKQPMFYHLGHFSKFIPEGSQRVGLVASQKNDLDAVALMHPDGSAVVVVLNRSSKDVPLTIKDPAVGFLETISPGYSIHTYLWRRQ
How it was run: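 IC50 by four-parameter fit of percent inhibition, with product fluorescence (365/440 nm) read after a glycine/NaOH pH 10 stop. Compound and commercial recombinant human enzyme were incubated 60 min at 37 °C before a further 60 min at 37 °C with 4-methylumbelliferyl-beta-D-pyranoside substrate.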

[2] = biological target: rat maltase (partially purified alpha-glucosidase from intestinal rat powder); assay: Intestinal alpha-glucosidase assay, maltose substrate (Glucose GO Kit); type: biochemical
How it was run: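 Partially purified alpha-glucosidase from rat intestinal powder was preincubated 60 min at 37 °C with serial compound dilutions, then given maltose or sucrose and incubated 30 min at 37 °C.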

Row | SMILES | IC50 [1] [nM] | IC50 [2] [nM]
1 | O=[N+]([O-])c1cc(N2CCOCC2)ccc1NCc1ccc(CN2C[C@@H](O)[C@H](O)[C@@H](O)[C@@H]2CO)cc1 (stereo in doubt) [Compound 1069, (2S,3S,4S,5R)-2-(hydroxymethyl)-1-{[4-({[4-(morpholin-4-yl)-2-nitrophenyl]amino}methyl)phenyl]methyl}piperidine-3,4,5-triol] | 3090 | < 1
2 | CN(Cc1ccc(CN2C[C@H](O)[C@@H](O)[C@H](O)[C@H]2CO)cc1)c1cc(-c2cccnn2)cc(C2CC2)c1 [Compound 1001, (2R,3R,4R,5S)-1-{[4-({[3-cyclopropyl-5-(pyridazin-3-yl)phenyl](methyl)amino}methyl)phenyl]methyl}-2-(hydroxymethyl)piperidine-3,4,5-triol] | 99700 | < 1
3 | Cc1cc(CN2CCOCC2)cc(NCCCCCCN2C[C@H](O)[C@@H](O)[C@H](O)[C@H]2CO)c1 [Compound 1003, (2R,3R,4R,5S)-2-(hydroxymethyl)-1-[6-({3-methyl-5-[(morpholin-4-yl)methyl]phenyl}amino)hexyl]piperidine-3,4,5-triol] | 7680 | 21
4 | Cc1cc(CN2CCOCC2)cc(NCc2ccc(CN3C[C@H](O)[C@@H](O)[C@H](O)[C@H]3CO)cc2)c1 [Compound 1005, (2R,3R,4R,5S)-2-(hydroxymethyl)-1-({4-[({3-methyl-5-[(morpholin-4-yl)methyl]phenyl}amino)methyl]phenyl}methyl)piperidine-3,4,5-triol] | > 100000 | 58
5 | OC[C@@H]1[C@@H](O)[C@H](O)[C@@H](O)CN1CCCCCCNc1cc(C2CC2)cc(N2CCOCC2)c1 [Compound 1006, (2R,3R,4R,5S)-1-(6-{[3-cyclopropyl-5-(morpholin-4-yl)phenyl]amino}hexyl)-2-(hydroxymethyl)piperidine-3,4,5-triol] | 618 | 10
6 | N#Cc1cc(NCc2cccc(CN3C[C@H](O)[C@@H](O)[C@H](O)[C@H]3CO)c2)cc(-c2ccc[nH]2)c1 [Compound 1045, 3-(1H-pyrrol-2-yl)-5-{[(3-{[(2R,3R,4R,5S)-3,4,5-trihydroxy-2-(hydroxymethyl)piperidin-1-yl]methyl}phenyl)methyl]amino}benzonitrile] | 60700 | < 1
7 | N#Cc1cc(NCc2cccc(CN3C[C@H](O)[C@@H](O)[C@H](O)[C@H]3CO)c2)cc(-c2cccnn2)c1 [Compound 1046, 3-(pyridazin-3-yl)-5-{[(3-{[(2R,3R,4R,5S)-3,4,5-trihydroxy-2-(hydroxymethyl)piperidin-1-yl]methyl}phenyl)methyl]amino}benzonitrile] | 87300 | 6
8 | N#Cc1cc(NCc2cccc(CN3C[C@H](O)[C@@H](O)[C@H](O)[C@H]3CO)c2)cc(-c2ncccn2)c1 [Compound 1047, 3-(pyrimidin-2-yl)-5-{[(3-{[(2R,3R,4R,5S)-3,4,5-trihydroxy-2-(hydroxymethyl)piperidin-1-yl]methyl}phenyl)methyl]amino}benzonitrile] | 87300 | < 1
9 | Cc1cc(NCc2ccc(CN3C[C@H](O)[C@@H](O)[C@H](O)[C@H]3CO)cc2)cc(N2CCOCC2)c1 [Compound 1048, (2R,3R,4R,5S)-2-(hydroxymethyl)-1-{[4-({[3-methyl-5-(morpholin-4-yl)phenyl]amino}methyl)phenyl]methyl}piperidine-3,4,5-triol] | > 100000 | 13
10 | Cc1cc(NCc2ccc(CN3C[C@H](O)[C@@H](O)[C@H](O)[C@H]3CO)cc2)cc(C2=COCCO2)c1 [Compound 1050, (2R,3R,4R,5S)-1-{[4-({[3-(5,6-dihydro-1,4-dioxin-2-yl)-5-methylphenyl]amino}methyl)phenyl]methyl}-2-(hydroxymethyl)piperidine-3,4,5-triol] | > 100000 | < 1
11 | Cc1cc(NCc2ccc(CN3C[C@H](O)[C@@H](O)[C@H](O)[C@H]3CO)cc2)cc(-c2ccc[nH]2)c1 [Compound 1051, (2R,3R,4R,5S)-2-(hydroxymethyl)-1-{[4-({[3-methyl-5-(1H-pyrrol-2-yl)phenyl]amino}methyl)phenyl]methyl}piperidine-3,4,5-triol] | 15000 | < 1
12 | Cc1cc(NCc2ccc(CN3C[C@H](O)[C@@H](O)[C@H](O)[C@H]3CO)cc2)cc(-c2ncccn2)c1 [Compound 1053, (2R,3R,4R,5S)-2-(hydroxymethyl)-1-{[4-({[3-methyl-5-(pyrimidin-2-yl)phenyl]amino}methyl)phenyl]methyl}piperidine-3,4,5-triol] | > 100000 | 2
13 | CS(=O)(=O)c1cc(NCc2ccc(CN3C[C@H](O)[C@@H](O)[C@H](O)[C@H]3CO)cc2)cc(N2CCOCC2)c1 [Compound 1054, (2R,3R,4R,5S)-2-(hydroxymethyl)-1-{[4-({[3-methanesulfonyl-5-(morpholin-4-yl)phenyl]amino}methyl)phenyl]methyl}piperidine-3,4,5-triol] | > 100000 | 57
14 | CS(=O)(=O)c1cc(NCc2ccc(CN3C[C@H](O)[C@@H](O)[C@H](O)[C@H]3CO)cc2)cc(-c2ncccn2)c1 [Compound 1059, (2R,3R,4R,5S)-2-(hydroxymethyl)-1-{[4-({[3-methanesulfonyl-5-(pyrimidin-2-yl)phenyl]amino}methyl)phenyl]methyl}piperidine-3,4,5-triol] | > 100000 | 8
15 | N#Cc1cc(NCc2ccc(CN3C[C@H](O)[C@@H](O)[C@H](O)[C@H]3CO)cc2)cc(N2CCOCC2)c1 [Compound 1060, 3-(morpholin-4-yl)-5-{[(4-{[(2R,3R,4R,5S)-3,4,5-trihydroxy-2-(hydroxymethyl)piperidin-1-yl]methyl}phenyl)methyl]amino}-benzonitrile] | > 100000 | 9
16 | N#Cc1cc(NCc2ccc(CN3C[C@H](O)[C@@H](O)[C@H](O)[C@H]3CO)cc2)cc(C2=COCCO2)c1 [Compound 1062, 3-(5,6-dihydro-1,4-dioxin-2-yl)-5-{[(4-{[(2R,3R,4R,5S)-3,4,5-trihydroxy-2-(hydroxymethyl)piperidin-1-yl]methyl}phenyl)-methyl]amino}benzonitrile] | 35500 | < 1
17 | N#Cc1cc(NCc2ccc(CN3C[C@H](O)[C@@H](O)[C@H](O)[C@H]3CO)cc2)cc(-c2ccc[nH]2)c1 [Compound 1063, 3-(1H-pyrrol-2-yl)-5-{[(4-{[(2R,3R,4R,5S)-3,4,5-trihydroxy-2-(hydroxymethyl)piperidin-1-yl]methyl}phenyl)methyl]amino}-benzonitrile] | > 100000 | < 1
18 | N#Cc1cc(NCc2ccc(CN3C[C@H](O)[C@@H](O)[C@H](O)[C@H]3CO)cc2)cc(-c2cccnn2)c1 [Compound 1064, 3-(pyridazin-3-yl)-5-{[(4-{[(2R,3R,4R,5S)-3,4,5-trihydroxy-2-(hydroxymethyl)piperidin-1-yl]methyl}phenyl)methyl]amino}-benzonitrile] | 53700 | 2
19 | N#Cc1cc(NCc2ccc(CN3C[C@H](O)[C@@H](O)[C@H](O)[C@H]3CO)cc2)cc(-c2ncccn2)c1 [Compound 1065, 3-(pyrimidin-2-yl)-5-{[(4-{[(2R,3R,4R,5S)-3,4,5-trihydroxy-2-(hydroxymethyl)piperidin-1-yl]methyl}phenyl)methyl]amino}-benzonitrile] | 32100 | 3
20 | OC[C@@H]1[C@@H](O)[C@H](O)[C@@H](O)CN1Cc1cccc(CNc2ccc(C3=COCCO3)cc2)c1 [Compound 1066, (2R,3R,4R,5S)-1-{[3-({[4-(5,6-dihydro-1,4-dioxin-2-yl)phenyl]amino}methyl)phenyl]methyl}-2-(hydroxymethyl)piperidine-3,4,5-triol] | > 100000 | 41
21 | COc1cc(Br)cc(NCCn2cc(CCN3C[C@H](O)[C@@H](O)[C@H](O)[C@H]3CO)c3ccccc32)c1 [Compound 1075, (2R,3R,4R,5S)-1-[2-(1-{2-[(3-bromo-5-methoxyphenyl)amino]ethyl}-1H-indol-3-yl)ethyl]-2-(hydroxymethyl)piperidine-3,4,5-triol] | 2520 | 238
22 | OC[C@@H]1[C@@H](O)[C@H](O)[C@@H](O)CN1CCc1cn(CCNc2ccccc2)c2ccccc12 [Compound 1076, (2R,3R,4R,5S)-2-(hydroxymethyl)-1-(2-{1-[2-(phenylamino)ethyl]-1H-indol-3-yl}ethyl)piperidine-3,4,5-triol] | 7810 | 250
23 | CC(C)c1cc(CCNc2ccc(N=[N+]=[N-])cc2[N+](=O)[O-])cc(CCN2C[C@H](O)[C@@H](O)[C@H](O)[C@H]2CO)c1 [Compound 1077, (2R,3R,4R,5S)-1-[2-(3-{2-[(4-azido-2-nitrophenyl)amino]ethyl}-5-(propan-2-yl)phenyl)ethyl]-2-(hydroxymethyl)piperidine-3,4,5-triol] | 379 | 6650
24 | O=[N+]([O-])c1cc(-c2ncc[nH]2)ccc1NCCc1ccc(CCN2C[C@H](O)[C@@H](O)[C@H](O)[C@H]2CO)cc1 [Compound 1078, (2R,3R,4R,5S)-2-(hydroxymethyl)-1-{2-[4-(2-{[4-(1H-imidazol-2-yl)-2-nitrophenyl]amino}ethyl)phenyl]ethyl}piperidine-3,4,5-triol] | 6970 | 28
